Laboratory results as given in the supplement of paper PMC12463676, “Small-molecule dissolution of stress granules by redox modulation benefits ALS models” (Nature Chemical Biology, 2025).

Tests used:
[1] = compound: O=[As]([O-])(O)O.[K+] [potassium arsenate]; test: thermal stability z-score vs DMSO; higher = more thermally stabilized by treatment; conditions: HeLa; arsenate concentration 1 mM
Description: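 Cellular thermal proteome profiling in HeLa cells treated with 1 mM arsenate for 1 h (DMSO pretreatment), heated to ten temperatures (37-66.3 °C). Soluble protein was quantified by TMT mass spectrometry relative to DMSO controls; the thermal stability score was transformed to a z-score; mean of n = 3 experiments.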

[2] = compound: NC(=O)CCCCC1CCSS1 [lipoamide]; test: as above; conditions: HeLa, lipoamide concentration 100 µM
Description: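 Cellular thermal proteome profiling in HeLa cells. Cells were treated with 100 µM lipoamide for 1 h, with or without 1 mM arsenate for a further 1 h, then heated to ten temperatures (37-66.3 °C), and soluble protein was quantified by TMT mass spectrometry relative to 0.1% DMSO controls. The thermal stability score (sum of log2 fold changes minus the abundance score) was transformed to a z-score; mean of n = 3 experiments.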

[3] = arsenate co-treatment: 1 mM arsenate 1 h
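Further: each temperature applied for 3 min, abundance score taken as mean log2 fold change at the two lowest temperatures, z-score obtained by mean subtraction and division by SD.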

UniProt Q9NQW6, sequence (Q9NQW6 whole entry): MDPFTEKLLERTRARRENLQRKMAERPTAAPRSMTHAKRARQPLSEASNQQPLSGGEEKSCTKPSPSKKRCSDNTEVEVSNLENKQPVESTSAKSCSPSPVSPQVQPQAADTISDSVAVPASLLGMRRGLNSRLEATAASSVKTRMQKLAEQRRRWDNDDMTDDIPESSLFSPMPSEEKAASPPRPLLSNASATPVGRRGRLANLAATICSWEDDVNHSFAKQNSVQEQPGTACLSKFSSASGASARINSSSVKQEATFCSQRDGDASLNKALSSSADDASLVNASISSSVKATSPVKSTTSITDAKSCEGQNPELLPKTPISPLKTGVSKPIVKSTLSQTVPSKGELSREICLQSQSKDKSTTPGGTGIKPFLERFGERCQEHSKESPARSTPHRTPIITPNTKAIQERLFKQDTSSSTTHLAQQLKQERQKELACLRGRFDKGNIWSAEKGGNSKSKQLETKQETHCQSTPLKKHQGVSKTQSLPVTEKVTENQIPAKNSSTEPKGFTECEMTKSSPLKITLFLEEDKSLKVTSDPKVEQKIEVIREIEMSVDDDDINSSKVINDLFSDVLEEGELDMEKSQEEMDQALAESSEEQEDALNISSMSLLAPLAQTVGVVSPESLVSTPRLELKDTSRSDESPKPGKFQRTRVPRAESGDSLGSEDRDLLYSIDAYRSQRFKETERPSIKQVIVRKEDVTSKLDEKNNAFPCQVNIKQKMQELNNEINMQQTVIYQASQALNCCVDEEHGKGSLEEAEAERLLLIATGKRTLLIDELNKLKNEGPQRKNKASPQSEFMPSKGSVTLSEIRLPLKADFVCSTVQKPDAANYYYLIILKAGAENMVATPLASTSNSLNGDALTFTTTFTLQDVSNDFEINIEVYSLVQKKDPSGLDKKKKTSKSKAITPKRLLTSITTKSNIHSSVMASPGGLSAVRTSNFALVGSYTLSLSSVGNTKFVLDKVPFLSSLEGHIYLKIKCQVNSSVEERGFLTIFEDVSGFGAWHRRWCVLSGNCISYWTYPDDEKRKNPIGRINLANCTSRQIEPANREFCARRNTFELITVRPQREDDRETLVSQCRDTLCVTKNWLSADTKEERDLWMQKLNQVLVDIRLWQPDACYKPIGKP
UniProt P63010, sequence (P63010 whole entry): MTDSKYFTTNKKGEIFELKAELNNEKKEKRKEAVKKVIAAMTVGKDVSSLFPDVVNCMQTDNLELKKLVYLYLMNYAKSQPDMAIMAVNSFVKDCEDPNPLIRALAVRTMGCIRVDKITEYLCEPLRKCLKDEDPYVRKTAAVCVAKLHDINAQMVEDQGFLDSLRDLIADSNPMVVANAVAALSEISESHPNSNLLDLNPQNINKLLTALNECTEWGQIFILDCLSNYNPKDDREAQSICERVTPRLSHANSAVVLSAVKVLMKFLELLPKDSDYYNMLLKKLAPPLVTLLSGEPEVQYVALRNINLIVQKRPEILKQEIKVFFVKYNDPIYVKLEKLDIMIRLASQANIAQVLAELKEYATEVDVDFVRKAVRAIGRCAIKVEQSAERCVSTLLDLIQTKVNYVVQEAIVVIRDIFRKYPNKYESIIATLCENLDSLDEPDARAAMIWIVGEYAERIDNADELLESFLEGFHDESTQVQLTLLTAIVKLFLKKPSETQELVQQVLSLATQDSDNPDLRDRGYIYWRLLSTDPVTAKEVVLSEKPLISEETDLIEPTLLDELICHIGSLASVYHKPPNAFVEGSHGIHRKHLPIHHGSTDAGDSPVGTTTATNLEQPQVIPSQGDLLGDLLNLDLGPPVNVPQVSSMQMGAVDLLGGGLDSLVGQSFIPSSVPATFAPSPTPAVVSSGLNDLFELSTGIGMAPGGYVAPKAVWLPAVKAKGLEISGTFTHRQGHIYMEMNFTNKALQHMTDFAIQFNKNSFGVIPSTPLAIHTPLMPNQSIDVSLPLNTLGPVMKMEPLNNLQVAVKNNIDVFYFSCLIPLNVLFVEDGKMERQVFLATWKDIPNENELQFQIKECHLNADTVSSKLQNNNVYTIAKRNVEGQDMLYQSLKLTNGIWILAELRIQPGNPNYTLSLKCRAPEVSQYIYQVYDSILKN
UniProt Q92625, sequence (Q92625 whole entry): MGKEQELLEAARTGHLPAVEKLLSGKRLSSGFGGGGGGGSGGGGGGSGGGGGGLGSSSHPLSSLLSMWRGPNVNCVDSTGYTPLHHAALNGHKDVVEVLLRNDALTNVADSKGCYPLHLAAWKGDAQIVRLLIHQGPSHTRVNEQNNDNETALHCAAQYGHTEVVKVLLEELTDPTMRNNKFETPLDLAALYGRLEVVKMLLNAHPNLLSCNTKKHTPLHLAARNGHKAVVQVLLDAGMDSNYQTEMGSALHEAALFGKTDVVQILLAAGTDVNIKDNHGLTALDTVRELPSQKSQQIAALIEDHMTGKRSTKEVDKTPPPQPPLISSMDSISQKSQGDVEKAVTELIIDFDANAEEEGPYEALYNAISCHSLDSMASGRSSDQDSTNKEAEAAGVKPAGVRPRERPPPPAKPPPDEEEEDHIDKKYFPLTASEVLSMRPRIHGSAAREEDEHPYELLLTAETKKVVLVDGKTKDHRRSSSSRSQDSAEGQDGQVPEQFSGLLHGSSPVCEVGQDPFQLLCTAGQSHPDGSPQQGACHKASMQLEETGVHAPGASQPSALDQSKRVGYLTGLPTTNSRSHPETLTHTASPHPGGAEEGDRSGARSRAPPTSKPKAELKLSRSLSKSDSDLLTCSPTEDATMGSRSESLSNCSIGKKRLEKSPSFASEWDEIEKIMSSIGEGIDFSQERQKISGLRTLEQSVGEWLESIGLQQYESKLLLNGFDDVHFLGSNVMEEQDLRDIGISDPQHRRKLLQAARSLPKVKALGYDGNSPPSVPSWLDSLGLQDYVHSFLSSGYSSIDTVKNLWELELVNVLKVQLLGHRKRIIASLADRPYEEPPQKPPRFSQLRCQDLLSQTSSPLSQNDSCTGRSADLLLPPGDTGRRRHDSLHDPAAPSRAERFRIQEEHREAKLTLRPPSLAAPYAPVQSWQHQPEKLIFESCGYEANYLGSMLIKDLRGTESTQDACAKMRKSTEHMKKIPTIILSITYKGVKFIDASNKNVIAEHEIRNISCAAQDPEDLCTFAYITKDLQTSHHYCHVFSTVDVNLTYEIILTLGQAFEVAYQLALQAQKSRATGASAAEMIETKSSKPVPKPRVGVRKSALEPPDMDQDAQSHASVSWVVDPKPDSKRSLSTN
UniProt Q9HDC9, sequence (Q9HDC9 whole entry): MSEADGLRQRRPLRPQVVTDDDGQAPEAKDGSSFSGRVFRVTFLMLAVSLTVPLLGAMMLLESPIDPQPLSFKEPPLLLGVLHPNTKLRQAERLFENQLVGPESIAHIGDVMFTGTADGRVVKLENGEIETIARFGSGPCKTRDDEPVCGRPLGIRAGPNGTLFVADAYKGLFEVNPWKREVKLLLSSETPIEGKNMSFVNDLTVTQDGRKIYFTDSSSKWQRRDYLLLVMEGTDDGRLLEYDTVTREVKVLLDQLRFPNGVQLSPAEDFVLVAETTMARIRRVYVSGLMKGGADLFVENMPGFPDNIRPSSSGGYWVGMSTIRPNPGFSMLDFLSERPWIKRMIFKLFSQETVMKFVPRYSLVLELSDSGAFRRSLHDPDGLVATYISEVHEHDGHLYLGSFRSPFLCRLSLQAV
UniProt Q8N8A2, sequence (Q8N8A2 whole entry): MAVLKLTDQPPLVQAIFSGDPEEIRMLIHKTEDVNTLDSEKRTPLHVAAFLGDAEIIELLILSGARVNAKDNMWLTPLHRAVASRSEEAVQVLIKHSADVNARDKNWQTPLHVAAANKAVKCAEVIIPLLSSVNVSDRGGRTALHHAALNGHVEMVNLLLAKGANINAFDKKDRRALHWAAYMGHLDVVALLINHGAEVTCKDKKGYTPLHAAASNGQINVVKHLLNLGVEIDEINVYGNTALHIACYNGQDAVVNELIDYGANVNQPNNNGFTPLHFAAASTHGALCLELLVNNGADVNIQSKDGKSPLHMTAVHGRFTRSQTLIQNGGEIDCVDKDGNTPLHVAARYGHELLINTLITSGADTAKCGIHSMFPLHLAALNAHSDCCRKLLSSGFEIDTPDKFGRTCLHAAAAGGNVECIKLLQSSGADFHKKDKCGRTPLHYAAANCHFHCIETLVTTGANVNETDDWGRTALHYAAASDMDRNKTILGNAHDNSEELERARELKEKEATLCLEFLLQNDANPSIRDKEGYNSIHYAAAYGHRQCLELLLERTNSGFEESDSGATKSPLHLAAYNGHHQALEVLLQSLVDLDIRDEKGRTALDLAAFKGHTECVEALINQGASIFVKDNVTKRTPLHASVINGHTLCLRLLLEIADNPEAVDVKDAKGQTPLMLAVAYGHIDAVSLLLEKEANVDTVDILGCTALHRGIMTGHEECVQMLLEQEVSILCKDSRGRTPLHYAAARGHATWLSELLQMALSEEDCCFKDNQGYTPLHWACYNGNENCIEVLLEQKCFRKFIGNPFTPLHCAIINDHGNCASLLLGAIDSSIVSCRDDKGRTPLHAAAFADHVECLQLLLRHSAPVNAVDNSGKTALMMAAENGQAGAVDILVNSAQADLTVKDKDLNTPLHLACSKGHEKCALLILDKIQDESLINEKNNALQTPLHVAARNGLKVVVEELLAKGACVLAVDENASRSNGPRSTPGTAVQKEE
UniProt Q6NXT1, sequence (Q6NXT1 whole entry): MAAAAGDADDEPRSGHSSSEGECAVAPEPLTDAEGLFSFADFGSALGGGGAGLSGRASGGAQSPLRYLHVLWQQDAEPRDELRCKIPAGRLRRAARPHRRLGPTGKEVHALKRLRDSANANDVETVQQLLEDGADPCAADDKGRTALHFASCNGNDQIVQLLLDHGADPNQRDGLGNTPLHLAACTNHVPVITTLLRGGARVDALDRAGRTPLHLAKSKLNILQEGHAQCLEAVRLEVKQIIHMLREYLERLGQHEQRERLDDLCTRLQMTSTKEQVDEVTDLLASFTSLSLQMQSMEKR
UniProt P53680, sequence (P53680 whole entry): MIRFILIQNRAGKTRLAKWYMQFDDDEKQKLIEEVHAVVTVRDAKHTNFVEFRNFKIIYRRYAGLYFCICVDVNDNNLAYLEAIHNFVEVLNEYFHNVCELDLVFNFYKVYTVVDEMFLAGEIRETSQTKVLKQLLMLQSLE

| Target | thermal stability z-score [1] | thermal stability z-score [2, 3] | thermal stability z-score ([2]; arsenate co-treatment: none) |
| --- | --- | --- | --- |
| AMMECR1 (UniProt Q9Y4X0) | -0.217 | -0.157 | -0.0642 |
| AMPD2 (UniProt Q01433) | 0.172 | 0.297 | -0.25 |
| AMZ2 (UniProt Q86W34) | 0.211 | 0.33 | -0.032 |
| ANAPC1 (UniProt Q9H1A4) | 0.0453 | 0.11 | 0.139 |
| ANAPC2 (UniProt Q9UJX6) | 0.093 | -0.312 | -0.0871 |
| ANAPC4 (UniProt Q9UJX5) | -1.3 | -0.529 | -0.278 |
| ANAPC5 (UniProt Q9UJX4) | -0.0639 | 0.0562 | -0.0827 |
| ANAPC7 (UniProt Q9UJX3) | 0.251 | 0.306 | 0.186 |
| ANAPC10 (UniProt Q9UM13) | -0.183 | 0.0276 | -0.149 |
| ANGEL2 (UniProt Q5VTE6) | -0.0197 | -0.111 | -0.19 |
| ANKFY1 (UniProt Q9P2R3) | 0.477 | 0.069 | 0.106 |
| ANKHD1 (UniProt Q8IWZ3) | 0.37 | -0.133 | -0.523 |
| ANKLE2 (UniProt Q86XL3) | 0.76 | -1.08 | -0.166 |
| ANKMY2 (UniProt Q8IV38) | 0.0818 | 0.0659 | 0.00957 |
| ANKRD13A (UniProt Q8IZ07) | -0.0666 | 0.0649 | -0.0472 |
| ANKRD17 (UniProt O75179) | -0.27 | -0.568 | -0.123 |
| ANKRD27 (UniProt Q96NW4) | -0.276 | -0.025 | -0.0854 |
| ANKRD28 (UniProt O15084) | -0.209 | -0.25 | -0.0938 |
| ANKRD40 (UniProt Q6AI12) | 0.146 | 0.246 | 0.087 |
| ANKRD44 (UniProt Q8N8A2) | -0.0202 | -0.00602 | -0.323 |
| ANKRD50 (UniProt Q9ULJ7) | 0.0328 | -0.124 | 0.078 |
| ANKRD52 (UniProt Q8NB46) | -0.372 | -0.69 | -0.0975 |
| ANKRD54 (UniProt Q6NXT1) | -0.49 | -0.042 | -0.267 |
| ANKS1A (UniProt Q92625) | 0.294 | -0.553 | 0.198 |

| Target | thermal stability z-score [1] | thermal stability z-score [2, 3] | thermal stability z-score ([2]; arsenate co-treatment: none) |
| --- | --- | --- | --- |
| ANKZF1 (UniProt Q9H8Y5) | 0.0789 | 0.373 | 0.0149 |
| ANLN (UniProt Q9NQW6) | -1.45 | 0.066 | 0.0787 |
| ANO6 (UniProt Q4KMQ2) | -0.286 | -0.102 | -0.0242 |
| ANO10 (UniProt Q9NW15) | -0.262 | -0.0281 | -0.122 |
| ANP32A (UniProt P39687) | 0.197 | 0.324 | 0.51 |
| ANP32B (UniProt Q92688) | -0.513 | -0.711 | -0.129 |
| ANP32E (UniProt Q9BTT0) | -4 | -1.1 | 0.32 |
| ANTXR1 (UniProt Q9H6X2) | 0.283 | 0.0337 | -0.146 |
| ANXA1 (UniProt P04083) | -0.37 | 0.957 | 0.83 |
| ANXA2 (UniProt P07355) | 0.066 | 1.59 | 1.79 |
| ANXA3 (UniProt P12429) | 0.227 | 0.902 | 0.504 |
| ANXA4 (UniProt P09525) | 0.225 | 1.42 | 1.61 |
| ANXA5 (UniProt P08758) | 0.601 | 1.34 | 1.22 |
| ANXA6 (UniProt P08133) | 2.15 | 3.2 | 3.6 |
| ANXA7 (UniProt P20073) | 0.966 | 1.98 | 1.08 |
| ANXA8L1 (UniProt Q5VT79) | 0.00565 | -0.11 | -0.0845 |
| ANXA11 (UniProt P50995) | 1.77 | 3.8 | 3.23 |
| AP1B1 (UniProt Q10567) | 0.425 | 0.216 | 0.0123 |
| AP1G1 (UniProt O43747) | 0.813 | -0.704 | -0.404 |
| AP1G2 (UniProt O75843) | 0.167 | 0.17 | 0.114 |
| AP1M1 (UniProt Q9BXS5) | 0.791 | 0.126 | -0.43 |
| AP1S1 (UniProt P61966) | 0.802 | -0.264 | -0.339 |
| AP2A1 (UniProt O95782) | 1.19 | -0.0653 | 0.3 |
| AP2A2 (UniProt O94973) | -0.337 | -0.0644 | -0.149 |

| Target | thermal stability z-score [1] | thermal stability z-score [2, 3] | thermal stability z-score ([2]; arsenate co-treatment: none) |
| --- | --- | --- | --- |
| AP2B1 (UniProt P63010) | -0.216 | -0.153 | -0.596 |
| AP2M1 (UniProt Q96CW1) | 0.0231 | 0.48 | 0.0269 |
| AP2S1 (UniProt P53680) | 0.767 | -0.111 | -0.0691 |
| AP3B1 (UniProt O00203) | 0.404 | -0.0343 | 0.0807 |
| AP3D1 (UniProt O14617) | 0.577 | -0.494 | -0.336 |
| AP3M1 (UniProt Q9Y2T2) | 0.418 | 0.0419 | 0.0205 |
| AP3S1 (UniProt Q92572) | 0.131 | 0.0661 | 0.0785 |
| AP4B1 (UniProt Q9Y6B7) | -0.137 | 0.0905 | -0.147 |
| AP4E1 (UniProt Q9UPM8) | -0.068 | -0.117 | -0.092 |
| AP4M1 (UniProt O00189) | -0.173 | 0.0799 | -0.0232 |
| AP5Z1 (UniProt O43299) | 0.502 | 0.0372 | 0.822 |
| APAF1 (UniProt O14727) | -0.00853 | -0.167 | -0.0627 |
| APBB2 (UniProt Q92870) | 0.0987 | 0.078 | -0.11 |
| APC (UniProt P25054) | 0.816 | 0.728 | 0.273 |
| APEH (UniProt P13798) | 0.225 | 0.391 | 0.223 |
| APEX1 (UniProt P27695) | -0.345 | -0.558 | 0.406 |
| APEX2 (UniProt Q9UBZ4) | -0.747 | 0.0959 | 0.209 |
| APH1A (UniProt Q96BI3) | -0.696 | 0.28 | -0.0861 |
| API5 (UniProt Q9BZZ5) | 0.0226 | 0.11 | 0.124 |
| APIP (UniProt Q96GX9) | -0.0221 | 0.597 | 0.408 |
| APLP2 (UniProt Q06481) | -0.251 | -2.13 | -1.76 |
| APMAP (UniProt Q9HDC9) | 0.179 | 1.33 | 0.655 |
| APOB (UniProt P04114) | -0.328 | -0.228 | 0.0547 |
